The record followed here is US12121565B2, “Methods of treatment of specific cancers with NLRP3 inhibitors and anti-PD1/PD-L1 antibodies” (Duke University, priority 2019, dated 2024).

Assay [1] concerns BRAFV600E PTEN−/− melanoma cell line. The assay is described as follows: In vitro treatment of melanoma cell line followed by Western blot, qRT-PCR, IP, ASC polymerization or ELISA. Type of assay: cell-based, mouse. Conditions: with or without NLRP3 inhibitor MCC950. The source says:
Braf^V600EPten^−/− (male, BPD6 (40)), Braf^V600EPten^−/−-Wnt5a^KD (40), Braf^V600EPten^−/−-CXCL5^KD, Braf^V600EPten^−/−-PDL1^KD, Braf^V600EPten^−/−-NLRP3^KD, OVA-expressing Braf^V600EPten^−/−, BRAF^V600EPTEN^−/−-STAT3^CA, and Braf^V600EPten^−/−-NTC (40) cell lines were generated using shRNA-expressing lentiviral vectors and cultured as previously described (40): shNLRP3 (Sigma, SHCLN-NM_145827), shPDL1 (Sigma, SHCLND-NM_021893), shWnt5a (Sigma, SHCLND-NM_009524), shTLR4 (Sigma, SHCLNG-NM_025817, and pLKO.1-puro empty vector control (NTC) (Sigma, SHC001). Stable cell lines were selected by puromycin resistance (Sigma-Aldrich, P8833). Murine Lewis Lung Carcinoma (LLC) cell line is from ATCC (1704526). All cell lines were tested Mycoplasma-free by Duke University Cell Culture Facility shared services. All Braf^V600EPten^−/− cell lines and the LLC cell line were maintained at 37° C. in DMEM (Invitrogen) with 2 mM L-glutamine, supplemented with 10% fetal bovine serum, 100 units/ml penicillin. Depending on the experiment, cell lines were treated with Wnt5a (100-200 ng/ml, R&D Systems/Bio-techne, 645-WN-010), IFNγ (100 ng/ml, BioAbChem, 42-IFNg), anti-PD-L1 ab (1-2 μg/ml), Hsp70 (1 μM-10 μM, Enzo, ADI-ESP-502-D), Hsp70 inhibitor (ThermoFisher, VER155008), CLI-095 TLR4 inhibitor (3 μM-10 μM, Invivogen, tlrl-cli95), TLR2-IN-C29 TLR2 inhibitor (1 μM-10 μM, Glixx, GLXC-06203), MPLA TLR4 agonist (10 μM, Enzo, ALX-581-205-C100), LPS (Lipopolysaccharide) (10 ng, Sigma-Aldrich, L4391-1MG), ATP (1 mM-5 mM, Invivogen, tlrl-atpl), MCC950 NLRP3 inhibitor (2.5 μM-10 μM, Invivogen, inh-mcc), XAV939 β-catenin inhibitor (0.5-1.0 μM, Sigma-Aldrich, X3004-5MG), 2-Aminopurine PKR inhibitor (1 mM-5 mM, Invivogen, tlrl-apr), Verteporfin YAP inhibitor (0.1 μM-1 μM, R&D Systems/Bio-techne, 530510) or vehicle control either for 24 or 48 hrs prior to in vitro and in vivo experiments. Control siRNA (Santa Cruz, sc-37007). TLR4 siRNA (SantaCruz, sc-40261).
OT-1 CD8 cell activation was performed by incubating isolated splenocytes of OT-1 transgenic mice with IL-2 (100 U/ml) and SIINFEKL peptide (1 μg/ml, New England Peptide, BP10-915) for 3 days followed by magnetic bead CD8 purification according to the manufacturer's instructions (Miltenyi biotec, 130-104-075). Activated OT-1 CD8 cells were incubated with Braf^V600EPten^−/−-OVA cells and treated with anti-PD1 ab (1 μg/ml) for 72 hrs at a tumor cell:CD8^+ T cell ratio of 1:5. In separate experiments, Braf^V600EPten^−/− cells were treated with increasing concentrations of Dacarbazine (10 μmol-400 μmol).
Tumor tissue or cells were homogenized in NP40 lysis buffer (Sigma-Aldrich) supplemented with complete protease inhibitor and phosphatase inhibitor (Roche). Cells were lysed in Laemmli sample buffer after treatment and subjected to SDS-polyacrylamide gel electrophoresis. After transferring onto PVDF membranes (Bio-Rad), monoclonal and polyclonal primary antibodies and appropriate HRP-conjugated secondary antibodies were utilized for blotting. For the immunoprecipitation assays, cells were lysed with TBS buffer (50 mM Tris-HCl (pH 7.4), 150 mM NaCl) containing 0.5% Triton X-100, EDTA-free protease inhibitor cocktail and phosphatase inhibitor cocktail, precleared with protein A/G beads, and then incubated with 1 μg of appropriate antibodies or isotype control IgG on a rotator overnight at 4° C. then incubated with protein A/G-agarose at 4° C. for 1 hour. After 5 washes with TBS buffer, immunoprecipitated complexes were eluted in sample buffer by boiling and subjected to immunoblot analysis. Immunoblots were visualized by chemiluminescence substrate (ThermoFisher) and imaged by a ChemiDoc XRSplus system (BioRad). For the ASC polymerization assay, cells were lysed with TBS buffer containing 0.5% Triton X-100, EDTA-free protease inhibitor cocktail and phosphatase inhibitor cocktail. The lysates were centrifuged at 4,000 g at 4° C. for 15 min. […]
(In general: A western blot detects proteins with antibodies after separation by electrophoresis.)

The test system of assay [2] is BRAFV600EPTEN−/− melanoma cells. Kind of assay: MTT cell proliferation assay in culture. It counts as cell-based, mouse. The following applies: NLRP3 inhibitor (MCC950) in culture. The source says:
FIG. 14A-H. (A) NLRP3 Western blot analysis of NTC and NLRP3KD BRAFV600EPTEN−/− melanoma cells. (B) Representative dot plots of PMN-MDSC and CD8+ T cell flow cytometry analysis of resected BRAFV600EPTEN^−/−-NTC and BRAFV600EPTEN^−/−-NLRP3KD stable cell lines. Representative of 2 independent experiments. (C) Top, MTT cell proliferation assay of BRAFV600EPTEN^−/−-NTC, BRAFV600EPTEN−/−-NLRP3KD, BRAFV600EPTEN^−/−-PDL1KD stable cell lines in culture. ns, non-significant. Bottom, MTT cell proliferation assay of BRAFV600EPTEN−/−melanoma cells following treatment with NLRP3 inhibitor (MCC950) in culture. Each performed in triplicate. (D) Tumor growth curve of BRAFV600EPTEN^−/−-NLRP3KDmelanomas with CD8+ T cell ablation. Mice treated with anti-CD8 ab ip daily×3 days followed by anti-CD8 ab one week later (gray boxes). BRAFV600EPTEN^−/−-NTC control tumors also included (n=5). (E) Plasma HSP70 ELISA of BRAFV600EPTEN^−/− melanoma-bearing mice following treatment with IgG isotype control ab, anti-PD-1 ab, or anti-PD-1 ab+MCC950 NLRP3 inhibitor (NLRP3i) (n=4/group). NTC, non-targeted control. KD, knockdown. (F) IL-1β qrt-PCR analysis of BRAFV600EPTEN−/− melanoma cells (n=3). Data normalized to TLR9 expression. (G) Above, IL-1β ELISA of BRAFV600EPTEN−/−-melanoma cell line supernatant after IFNγ/anti-PD-L1 ab treatment in vitro (n=3). […]
(Tetrazolium assays rely on reduction of a dye to a coloured formazan, in cell work by metabolically active cells.)

For `CC(C)(O)c1coc(S(=O)(=O)NC(=O)Nc2c3c(cc4c2CCC4)CCC3)c1` [MCC950, N-[[(1,2,3,5,6,7-hexahydro-s-indacen-4-yl)amino]carbonyl]-4-(1-hydroxy-1-methylethyl)-2-furansulfonamide], the “ATP stimulation of HSP70 release” value in assay [1] is recorded as “block”. Moreover, the “impact on tumor cell proliferation in vitro” value in assay [2] is “neither pharmacologic inhibition of NLRP3 nor genetic silencing of Nlrp3 had any impact”.
